Measurements as given in ChEMBL document CHEMBL4007489, “First Bispecific Inhibitors of the Epidermal Growth Factor Receptor Kinase and the NF-κB Activity As Novel Anticancer Agents” (J Med Chem, 2017).

Tests used:
MDA-MB-231 = assay: cells; format: functional; settings: Homo sapiens, MDA-MB-231, 48 h
Description: Growth inhibition of human MDA-MB-231 cells after 48 hrs by MTT assay

[1] = target: T1, Epidermal growth factor receptor (Homo sapiens, UniProt P00533); settings: at 150 nM
cells = format: cell-based; settings: Homo sapiens, U-937
Description: Inhibition of TNFalpha-stimulated NF-kappaB (unknown origin) expressed in human U937 cells incubated for 3 hrs followed by TNFalpha stimulation measured after 2.5 hrs by luciferase reporter gene assay

Homo sapiens [2] = species on record: Homo sapiens; settings: at 10 µM;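 also: luciferase reporter readout of NF-kappaB activity in human U937 cells, compound added 3 h before TNFalpha stimulation, signal read 2.5 h after stimulation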
Description: Inhibition of TNFalpha-stimulated NF-kappaB (unknown origin) expressed in human U937 cells at 10 uM incubated for 3 hrs followed by TNFalpha stimulation measured after 2.5 hrs by luciferase reporter gene assay

[3] = target: T1, Epidermal growth factor receptor; assay: biochemical; format: cell-based
Homo sapiens [4] = species on record: Homo sapiens; assay: Inhibition of TNFalpha-stimulated NF-kappaB (unknown origin) expressed in human U937 cells at 5 uM incubated for 3 hrs followed by TNFalpha stimulation measured after 2.5 hrs by luciferase reporter gene assay; format: cell-based

T1 sequence (P00533 whole entry): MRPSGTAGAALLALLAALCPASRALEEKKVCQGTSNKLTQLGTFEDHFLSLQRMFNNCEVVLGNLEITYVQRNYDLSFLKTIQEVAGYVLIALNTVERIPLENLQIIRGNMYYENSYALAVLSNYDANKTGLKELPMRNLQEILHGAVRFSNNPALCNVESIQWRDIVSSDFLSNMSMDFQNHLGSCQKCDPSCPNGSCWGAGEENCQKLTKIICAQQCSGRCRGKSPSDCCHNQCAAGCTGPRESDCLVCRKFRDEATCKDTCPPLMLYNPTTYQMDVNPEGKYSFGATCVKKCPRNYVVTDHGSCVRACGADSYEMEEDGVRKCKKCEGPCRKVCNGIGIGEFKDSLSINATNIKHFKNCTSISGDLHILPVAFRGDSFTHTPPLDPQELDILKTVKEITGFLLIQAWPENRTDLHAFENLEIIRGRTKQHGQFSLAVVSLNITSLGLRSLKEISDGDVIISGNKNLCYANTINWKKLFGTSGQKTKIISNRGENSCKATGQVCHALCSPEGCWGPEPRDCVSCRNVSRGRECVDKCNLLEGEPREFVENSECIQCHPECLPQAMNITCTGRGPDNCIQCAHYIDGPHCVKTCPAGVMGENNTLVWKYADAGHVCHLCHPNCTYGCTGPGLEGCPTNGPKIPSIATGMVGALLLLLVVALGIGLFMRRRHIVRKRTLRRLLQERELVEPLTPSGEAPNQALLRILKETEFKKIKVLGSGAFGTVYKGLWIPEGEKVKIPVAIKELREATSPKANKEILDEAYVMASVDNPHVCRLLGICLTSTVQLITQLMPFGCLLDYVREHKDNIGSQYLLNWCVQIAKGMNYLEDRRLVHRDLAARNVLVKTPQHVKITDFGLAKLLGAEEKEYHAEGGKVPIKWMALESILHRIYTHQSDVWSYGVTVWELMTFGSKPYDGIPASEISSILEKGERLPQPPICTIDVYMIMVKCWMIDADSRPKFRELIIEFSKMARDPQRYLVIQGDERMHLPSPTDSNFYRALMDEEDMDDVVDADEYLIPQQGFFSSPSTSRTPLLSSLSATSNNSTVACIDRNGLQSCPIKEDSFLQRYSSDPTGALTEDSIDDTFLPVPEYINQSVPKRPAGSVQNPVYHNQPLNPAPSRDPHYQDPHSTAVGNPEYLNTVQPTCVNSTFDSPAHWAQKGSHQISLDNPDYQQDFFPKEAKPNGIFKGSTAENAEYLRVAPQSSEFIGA

GI50 (MDA-MB-231) [µM] | inhibition [1] [%] | IC50 (cells) [µM] | IC50 [3] [µM] | Structure (SMILES) | inhibition (Homo sapiens [2]) [%] | inhibition (Homo sapiens [4]) [%]
12.2 | 38.1 | 1.7 | > 0.15 | FC(F)(F)c1ccc(NC(=S)Nc2ccc3ncnc(Nc4cccc(Br)c4)c3c2)cc1 | 94.8 | 
10 | 86.5 | 5.2 | 0.0158 | S=C(Nc1ccccc1)Nc1ccc2ncnc(Nc3cccc(Br)c3)c2c1 | 90.7 | 
 | 70.8 | 1.2 | 0.12 | Cc1nnc(NC(=S)Nc2ccc3ncnc(Nc4cccc(Cl)c4)c3c2)s1 |  | 76.1
> 30 | 91.8 |  | 0.0107 | S=C(NCCN1CCOCC1)Nc1ccc2ncnc(Nc3cccc(Br)c3)c2c1 | 20.9 | 
10.5 | 41.7 | 4.8 | > 0.15 | CCc1cccc(Nc2ncnc3ccc(NC(=S)NCc4ccccc4)cc23)c1 | 92.5 | 
8.5 | 84.3 | 3.5 | 0.0158 | S=C(Nc1ccc2ncnc(Nc3cccc(Br)c3)c2c1)Nc1ccccc1Cl | 95.8 | 
> 30 | 81.7 |  | 0.022 | O=S(=O)(Nc1nccs1)c1ccc(NC(=S)Nc2ccc3ncnc(Nc4cccc(Br)c4)c3c2)cc1 | 16.5 | 
1.1 | 44 | 1.7 | > 0.15 | FC(F)(F)c1cc(NC(=S)Nc2ccc3ncnc(Nc4cccc(Br)c4)c3c2)ccc1Cl | 99 | 
8.4 | 14.5 | 4.4 | > 0.15 | S=C(NCc1ccccc1)Nc1ccc2ncnc(Nc3ccc(-c4ccccc4)cc3)c2c1 | 89.1 | 
0.8 | 32.3 | 1.9 | > 0.15 | FC(F)(F)c1cc(NC(=S)Nc2ccc3ncnc(Nc4cccc(Br)c4)c3c2)cc(C(F)(F)F)c1 | 100 | 
> 30 | 92.3 |  | 0.0095 | NS(=O)(=O)c1ccc(NC(=S)Nc2ccc3ncnc(Nc4cccc(Br)c4)c3c2)cc1 | 29 | 
 |  |  | 0.0021 | C=CC(=O)Nc1ccc2ncnc(Nc3ccc(Br)cc3F)c2c1 | 73.6 | 
 | 85 | 3 | 0.0555 | S=C(Nc1cncc(Cl)c1)Nc1ccc2ncnc(Nc3cccc(Cl)c3)c2c1 |  | 78
12.8 | 4.2 | 4.3 | > 0.15 | CC(C)c1ccc(Nc2ncnc3ccc(NC(=S)NCc4ccccc4)cc23)cc1 | 95.7 | 
> 30 | 89.9 |  | 0.0089 | O=C(NCc1ccccc1)Nc1ccc2ncnc(Nc3cccc(Br)c3)c2c1 | 42.6 | 
8.2 | 79.6 | 4.9 | 0.0195 | S=C(Nc1ccc(Cl)cc1)Nc1ccc2ncnc(Nc3cccc(Br)c3)c2c1 | 89.5 | 
27 | 44.1 |  | > 0.15 | Oc1ccc(Nc2ncnc3ccc(NC(=S)NCc4ccccc4)cc23)cc1 | 24.1 | 
> 30 | 60.8 |  | 0.0636 | Oc1cccc(Nc2ncnc3ccc(NC(=S)NCc4ccccc4)cc23)c1 | 44.3 | 
12.2 | 66 | 2.9 | 0.0489 | S=C(Nc1ccc2ncnc(Nc3cccc(Br)c3)c2c1)Nc1ccc(Cl)cc1Cl | 93.1 | 
10 | 69 |  | 0.0193 | O=C(Nc1ccc(Cl)cc1)Nc1ccc2ncnc(Nc3cccc(Br)c3)c2c1 | 50.3 | 
> 30 | 17.7 |  | > 0.15 | NS(=O)(=O)c1ccc(Nc2ncnc3ccc(NC(=S)NCc4ccccc4)cc23)cc1 | 19.2 | 
4.8 | 52.9 | 1.9 | 0.133 | S=C(Nc1ccc(Cl)c(Cl)c1)Nc1ccc2ncnc(Nc3cccc(Br)c3)c2c1 | 97.2 | 
 | 70.7 | 1 | 0.13 | FC(F)(F)c1nnc(NC(=S)Nc2ccc3ncnc(Nc4cccc(Cl)c4)c3c2)s1 |  | 80.5
 | 44.4 |  |  | Fc1ccc(NC(=S)Nc2ccc3ncnc(Nc4cccc(Cl)c4)c3c2)cc1F |  | 37.6
> 30 | 70.4 | 2 | 0.0354 | S=C(Nc1ccc(Br)cc1)Nc1ccc2ncnc(Nc3cccc(Br)c3)c2c1 | 96.7 | 
> 30 | 92.2 |  | 0.0091 | CNC(=S)Nc1ccc2ncnc(Nc3cccc(Br)c3)c2c1 | 3 | 
0.4 |  | 1.3 |  | Fc1c(NC(=S)Nc2ccc3ncnc(Nc4cccc(Br)c4)c3c2)cccc1C(F)(F)F | 98 | 

Further lines, the compound ahead of its results:

Structure (SMILES) | GI50 (MDA-MB-231) [µM] | inhibition [1] [%] | IC50 (cells) [µM] | IC50 [3] [µM] | inhibition (Homo sapiens [2]) [%] | inhibition (Homo sapiens [4]) [%]
S=C(NCc1ccccc1)Nc1ccc2ncnc(Nc3ccccc3Br)c2c1 | > 30 | 13.1 | 6.5 | > 0.15 | 85.7 | 
FC(F)(F)c1cccc(NC(=S)Nc2ccc3ncnc(Nc4cccc(Br)c4)c3c2)c1 | 1.4 | 57.5 | 1 | 0.0607 | 96.5 | 
O=S(=O)(Nc1ccccn1)c1ccc(Nc2ncnc3ccc(NC(=S)NCc4ccccc4)cc23)cc1 | > 30 | 20.9 |  | > 0.15 | 6.6 | 
S=C(Nc1cccnc1)Nc1ccc2ncnc(Nc3cccc(Br)c3)c2c1 | > 30 | 90.4 |  | 0.0102 | 42.4 | 
N=C(N)NS(=O)(=O)c1ccc(Nc2ncnc3ccc(NC(=S)NCc4ccccc4)cc23)cc1 | > 30 | 6.7 |  | > 0.15 | 21.7 | 
Oc1ccc(NC(=S)Nc2ccc3ncnc(Nc4cccc(Br)c4)c3c2)cc1 | 17.3 | 91.5 | 6.4 | 0.0089 | 85.3 | 
Cc1cccc(Nc2ncnc3ccc(NC(=S)NCc4ccccc4)cc23)c1C | 28.7 | 40 |  | > 0.15 | 71.5 | 
S=C(Nc1cc(Cl)cc(Cl)c1)Nc1ccc2ncnc(Nc3cccc(Br)c3)c2c1 | 3 | 50.9 | 1.8 | 0.146 | 99.6 | 
C=CC(=O)Nc1ccc2ncnc(Nc3cccc(C)c3F)c2c1 |  |  |  | 0.0015 | 70 | 
Cc1cccc(Nc2ncnc3ccc(NC(=S)NCc4ccccc4)cc23)c1 | 19.5 | 68.5 |  | 0.0368 | 76.4 | 
CC(C)(C)c1ccc(Nc2ncnc3ccc(NC(=S)NCc4ccccc4)cc23)cc1 | 8.7 | 0.9 | 5.51 | > 0.15 | 91.9 | 
S=C(NCc1ccccc1)Nc1ccc2ncnc(Nc3ccc(Br)cc3)c2c1 | 15.1 | 47.7 | 3.8 | > 0.15 | 92.1 | 
COc1ccc(C(=O)Nc2ccc3ncnc(Nc4cccc(Br)c4)c3c2)cc1 |  |  |  |  | 33.2 | 
S=C(NCc1ccccc1)Nc1ccc2ncnc(Nc3cccnc3)c2c1 | 17.9 | 38.5 |  | > 0.15 | 7.7 | 
S=C(NCc1ccccc1)Nc1ccc2ncnc(Nc3ccc(Oc4ccccc4)cc3)c2c1 | 6.8 | 21.9 |  | > 0.15 | 73.7 | 
S=C(NCc1ccc(Cl)cc1)Nc1ccc2ncnc(Nc3cccc(Br)c3)c2c1 | 23 | 77.5 |  | 0.0283 | 78.6 | 
O=C(Nc1ccc2ncnc(Nc3cccc(Br)c3)c2c1)c1ccco1 |  |  |  | 0.0084 | 39.4 | 
S=C(NCc1ccccc1)Nc1ccc2ncnc(Nc3cccc(Cl)c3)c2c1 | 7.3 |  | 3.7 |  | 89.7 | 
S=C(Nc1ccc2ncnc(Nc3cccc(Br)c3)c2c1)N1CCOCC1 | > 30 | 84 |  | 0.0269 | 40.1 | 
